We go through twelve compounds from patent publication US10626112B2, “Heterocyclic sulfonamide derivative and medicine comprising same” (EA PHARMA CO., LTD., priority 2014, dated 2020).

Broadly, the IC50 is the concentration needed to halve the response being measured.

Sequence of human TRPA1 (O75762 whole entry): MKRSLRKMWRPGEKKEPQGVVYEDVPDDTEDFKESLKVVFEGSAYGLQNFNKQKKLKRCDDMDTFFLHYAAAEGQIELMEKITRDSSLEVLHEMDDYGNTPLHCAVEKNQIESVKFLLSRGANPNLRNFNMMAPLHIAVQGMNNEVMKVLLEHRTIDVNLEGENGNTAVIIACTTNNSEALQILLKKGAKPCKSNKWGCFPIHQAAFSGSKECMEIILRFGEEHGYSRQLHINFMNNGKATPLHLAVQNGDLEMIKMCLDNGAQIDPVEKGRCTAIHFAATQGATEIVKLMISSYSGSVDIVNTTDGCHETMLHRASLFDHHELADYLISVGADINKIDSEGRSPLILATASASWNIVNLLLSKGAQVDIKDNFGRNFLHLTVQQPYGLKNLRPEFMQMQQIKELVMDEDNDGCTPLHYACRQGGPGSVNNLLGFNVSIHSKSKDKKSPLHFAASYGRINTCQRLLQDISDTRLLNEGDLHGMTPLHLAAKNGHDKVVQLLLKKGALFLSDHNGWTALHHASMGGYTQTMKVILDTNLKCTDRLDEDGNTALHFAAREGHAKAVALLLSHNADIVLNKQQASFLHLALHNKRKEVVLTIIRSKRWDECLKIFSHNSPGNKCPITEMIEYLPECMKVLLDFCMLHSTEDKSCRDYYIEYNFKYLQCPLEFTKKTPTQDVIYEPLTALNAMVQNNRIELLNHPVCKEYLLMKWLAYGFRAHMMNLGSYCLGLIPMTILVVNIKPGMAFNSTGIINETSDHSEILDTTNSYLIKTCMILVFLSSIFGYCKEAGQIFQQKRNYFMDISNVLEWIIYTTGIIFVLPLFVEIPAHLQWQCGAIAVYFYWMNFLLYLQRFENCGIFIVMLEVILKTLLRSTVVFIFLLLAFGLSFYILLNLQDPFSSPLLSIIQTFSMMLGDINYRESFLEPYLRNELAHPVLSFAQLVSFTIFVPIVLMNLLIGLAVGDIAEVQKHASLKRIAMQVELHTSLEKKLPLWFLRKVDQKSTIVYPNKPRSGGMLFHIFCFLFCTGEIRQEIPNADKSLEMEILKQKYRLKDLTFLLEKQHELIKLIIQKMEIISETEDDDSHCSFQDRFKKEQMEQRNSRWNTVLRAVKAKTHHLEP

The assay deals with human TRPA1 (Homo sapiens (Human), UniProt O75762). In words: Measurement of TRPA1 antagonist activity (1): intracellular calcium increase. As to conditions: 293T cells transfected with human TRPA1 expression plasmid; allylisothiocyanate 20 μM stimulation; intracellular calcium fluorescence; read-out: hTRPA1 IC50. It is filed as cell-based. In short, it runs like this:
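Calcium-flux readout of TRPA1 block: compound given 10 min before 20 μM (final) allylisothiocyanate, fluorescence tracked 5 min. Cells were 293T transiently expressing human TRPA1, dye-loaded 1 hr in HBSS, 20 mM HEPES, pH 7.2. Inhibition scaled between agonist-only and buffer-only responses; IC50 by sigmoid fitting.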
In general terms: Calcium flux is commonly read through the fluorescence of an indicator in the cells.
As for `O=C(NCc1cccc(OCc2cccnc2)c1)[C@@H]1CCCN1S(=O)(=O)c1cc2cc(F)ccc2o1` [Example 14, (2S)-1-(5-fluorobenzofuran-2-yl)sulfonyl-N-[[3-(3-pyridylmethoxy)phenyl]-methyl]pyrrolidine-2-carboxamide], the IC50 is 20 nM.

As to `O=C(NCc1cc(-c2ccc(C(F)(F)F)cc2)cnn1)[C@@H]1CCCN1S(=O)(=O)c1cc2ccccc2o1` [Example 210, (2S)-1-(benzofuran-2-ylsulfonyl)-N-[[5-[4-(trifluoromethyl)phenyl]-pyridazin-3-yl]methyl]pyrrolidine-2-carboxamide], the IC50 came out at 19 nM. For the compound `O=C(NCc1cc(-c2ccc(C(F)(F)F)cn2)ccn1)[C@@H]1[C@@H](O)CCN1S(=O)(=O)c1cc2cc(F)ccc2o1` [Example 228, (2S,3S)-1-(5-fluorobenzofuran-2-yl)sulfonyl-3-hydroxy-N-[[4-[5-(trifluoromethyl)-2-pyridyl]-2-pyridyl]methyl]pyrrolidine-2-carboxamide], the IC50 was 32 nM. `N#Cc1cccc(-c2cc(CNC(=O)[C@@H]3CCCN3S(=O)(=O)c3cc4ccccc4o3)ccn2)c1` [Example 118, (2S)-1-(benzofuran-2-ylsulfonyl)-N-[[2-(3-cyanophenyl)-4-pyridyl]methyl]pyrrolidine-2-carboxamide]: the IC50 came out at 260 nM. For the compound `O=C(NCc1cc(-c2cnc(C(F)(F)F)nc2)ncn1)[C@@H]1CCCN1S(=O)(=O)c1cc2ccccc2o1` [Example 207, (2S)-1-(benzofuran-2-ylsulfonyl)-N-[[6-[2-(trifluoromethyl)pyrimidin-5-yl]pyrimidin-4-yl]methyl]pyrrolidine-2-carboxamide], the IC50 turned out to be 4 nM. On to `O=C(NCc1cc(-c2cnc(C(F)(F)F)cn2)ccn1)[C@@H]1CCCN1S(=O)(=O)c1cc2ccccc2o1` [Example 201, (2S)-1-(benzofuran-2-ylsulfonyl)-N-[[4-[5-(trifluoromethyl)pyrazin-2-yl]-2-pyridyl]methyl]pyrrolidine-2-carboxamide], for which the IC50 was 8.6 nM. As to `COc1c(F)ccc(CNC(=O)[C@@H]2CCCN2S(=O)(=O)c2cc3ccccc3o2)c1F` [Example 68, (2S)-1-(benzofuran-2-ylsulfonyl)-N-[(2,4-difluoro-3-methoxy-phenyl)methyl]pyrrolidine-2-carboxamide], the IC50 was found to be 390 nM. With `O=C(NCc1cncc(-c2ccc(C(F)(F)F)nc2)c1)[C@@H]1CCCN1S(=O)(=O)c1cc2cc(F)ccc2o1` [Example 140, (2S)-1-(5-fluorobenzofuran-2-yl)sulfonyl-N-[[5-[6-(trifluoromethyl)-3-pyridyl]-3-pyridyl]methyl]pyrrolidine-2-carboxamide], the IC50 is 2.2 nM.

Take `C[C@H](NS(=O)(=O)c1cc2cc(F)ccc2o1)C(=O)NCc1cc(-c2ccc(C(F)(F)F)cc2O)ncn1` [Example 290, (2S)-2-[(5-fluorobenzofuran-2-yl)sulfonylamino]-N-[[6-[2-hydroxy-4-(trifluoromethyl)phenyl]pyrimidin-4-yl]methyl]propanamide]: the half-maximal inhibitory concentration (IC50) came out at 5.7 nM. With `O=C(NCc1cccc(OCc2ccc(C(F)(F)F)cc2)c1)[C@@H]1[C@@H](O)CCN1S(=O)(=O)c1cc2ccccc2o1` [Example 45, (2S,3S)-1-(benzofuran-2-ylsulfonyl)-3-hydroxy-N-[[3-[[4-(trifluoromethyl)phenyl]methoxy]-phenyl]methyl]pyrrolidine-2-carboxamide], the IC50 came out at 35 nM. In the case of `C[C@H](NS(=O)(=O)c1cc2ccccc2o1)C(=O)NCc1cc(-c2ccc(OC(F)(F)F)cc2)ncn1` [Example 231, (2S)-2-(benzofuran-2-ylsulfonylamino)-N-[[6-[4-(trifluoromethoxy)phenyl]-pyrimidin-4-yl]methyl]propanamide], the IC50 was 14 nM. Consider `N#Cc1cncc(-c2cccc(CNC(=O)[C@@H]3CCCN3S(=O)(=O)c3cc4cc(F)ccc4o3)c2)c1` [Example 163, (2S)-N-[[3-(5-cyano-3-pyridyl)phenyl]methyl]-1-(5-fluorobenzofuran-2-yl)sulfonyl-pyrrolidine-2-carboxamide], for which the IC50 is 31 nM.
